We go through 36 compounds from US10196391B2 (Hoffmann-La Roche Inc., priority 2014, dated 2019).

The experiment concerns HBsAg. In words: HBsAg assay (CLIA) in HepG2.2.15 cells. It is filed as cell-based, HBV. The following applies: Hepatitis B virus, HepG2.2.15, read-out: IC50 (HBsAg assay). How it is done:
HepG2.2.15 cells (Acs et al. Proc Natl Acad Sci USA, 84, (1987), 4641-4), a constitutively HBV-expressing cell line were cultured in DMEM+Glutamax-I medium (Invitrogen, Carlsbad, Calif., USA), supplemented with 10% fetal bovine serum (Invitrogen) and G418 (Invitrogen) at a final concentration of 200 mg/L and maintained in 5% CO2 at 37° C.
HepG2.2.15 cells were seeded in duplicate into white, 96-well plates at 1.5×10^4 cells/well. The cells were treated with a three-fold serial dilution series of the compounds in DMSO. The final DMSO concentration in all wells was 1% and DMSO was used as no drug control.
The HBsAg chemiluminescence immunoassay (CLIA) kit (Autobio Diagnostics Co., Zhengzhou, China, Catalog number: CL0310-2) was used to measure the levels of secreted HBV antigens semi-quantitatively. For the detection 50 μL/well culture supernatant was used and HBsAg was quantified using HBsAg chemiluminescence immunoassay (CLIA) kit (Autobio Diagnostics Co., Zhengzhou, China, Catalog number: CL0310-2), 50 μL of the supernatant was transferred to the CLIA assay plate and 50 μL of enzyme conjugate reagent was added into each well. The plates were sealed and gently agitated for 1 hour at room temperature. The supernatant-enzyme-mixture was discarded and wells were washed 6 times with 300 μL of PBS. The residual liquid was removed by plating the CLIA plate […] on absorbent tissue paper. 25 μL of substrates A and B were added to each well. Luminance was measured using a luminometer (Mithras LB 940 Multimode Microplate Reader) after 10 minutes incubation. Dose-response curves were generated and the IC50 value was extrapolated by using the E-WorkBook Suite (ID Business Solutions Ltd., Guildford, UK). The IC50 was defined as the compound concentration (or conditioned media log dilution) at which HBsAg secretion was reduced by 50% compared to the no drug control.
The compounds according to formula I were tested for their capacity to inhibit HBsAg as described herein.
One may read the IC50 as the concentration that inhibits the measured activity by half. In the case of `c1ccc(-c2ncc3c(n2)CCN(c2ccccn2)C3)nc1` [Example 35, 2,6-bis(2-pyridyl)-7,8-dihydro-5H-pyrido[4,3-d]pyrimidine], the IC50 turned out to be 8220 nM.

As to `COc1cc(C#N)cc(N2CCc3nc(-c4ncccn4)ncc3C2)c1` [Example 76, 3-methoxy-5-(2-pyrimidin-2-yl-7,8-dihydro-5H-pyrido[4,3-d]pyrimidin-6-yl)benzonitrile], the IC50 stood at 1510 nM.

On to `COCCCOc1cc(N2CCc3nc(-c4ccccn4)ncc3C2)cc(F)c1F` [Example 19, 6-[3,4-difluoro-5-(3-methoxypropoxy)phenyl]-2-(2-pyridyl)-7,8-dihydro-5H-pyrido[4,3-d]pyrimidine], for which the IC50 was determined as 461 nM. With `COc1cc(N2CCc3nc(-c4ncccn4)ncc3C2)cc(Cl)c1F` [Example 79, 6-(3-chloro-4-fluoro-5-methoxy-phenyl)-2-pyrimidin-2-yl-7,8-dihydro-5H-pyrido[4,3-d]pyrimidine], the IC50 worked out at 288 nM. With `COC(=O)c1cc(F)cc(N2CCc3nc(-c4ncccn4)ncc3C2)c1` [Example 102, methyl 3-fluoro-5-(2-pyrimidin-2-yl-7,8-dihydro-5H-pyrido[4,3-d]pyrimidin-6-yl)benzoate] the figure was 11900 nM; with `COc1cccc(-c2ncc3c(n2)CCN(c2cc(F)c(F)c(OC)c2)C3)n1` [Example 25, 6-(3,4-difluoro-5-methoxy-phenyl)-2-(6-methoxy-2-pyridyl)-7,8-dihydro-5H-pyrido[4,3-d]pyrimidine], 16000 nM; with `COCCCOc1ccc(N2CCc3nc(-c4ccccn4)ncc3C2)cc1F` [Example 56, 6-[3-fluoro-4-(3-methoxypropoxy)phenyl]-2-(2-pyridyl)-7,8-dihydro-5H-pyrido[4,3-d]pyrimidine], 1840 nM. Regarding `COc1ccnc(-c2ncc3c(n2)CCN(c2cc(F)c(F)c(OC)c2)C3)c1` [Example 24, 6-(3,4-difluoro-5-methoxy-phenyl)-2-(4-methoxy-2-pyridyl)-7,8-dihydro-5H-pyrido[4,3-d]pyrimidine], the IC50 came out at 1860 nM. In the case of `CCCOc1cc(N2CCc3nc(-c4ccccn4)ncc3C2)cc(F)c1F` [Example 22, 6-(3,4-difluoro-5-propoxy-phenyl)-2-(2-pyridyl)-7,8-dihydro-5H-pyrido[4,3-d]pyrimidine], the 50% inhibitory concentration (IC50) worked out at 750 nM. In the case of `Fc1cc(N2CCc3nc(-c4ccccn4)ncc3C2)cc(F)c1OCc1ccccc1` [Example 64, 6-(4-benzyloxy-3,5-difluoro-phenyl)-2-(2-pyridyl)-7,8-dihydro-5H-pyrido[4,3-d]pyrimidine], the IC50 came to 1820 nM. With `COc1cc(F)cc(N2CCc3nc(-c4ncccn4)ncc3C2)n1` [Example 111, 6-(4-fluoro-6-methoxy-2-pyridyl)-2-pyrimidin-2-yl-7,8-dihydro-5H-pyrido[4,3-d]pyrimidine] the figure was 362 nM; with `COc1cc(N2CCc3nc(-c4ncccn4)ncc3C2)cc(F)c1C#N` [Example 77, 2-fluoro-6-methoxy-4-(2-pyrimidin-2-yl-7,8-dihydro-5H-pyrido[4,3-d]pyrimidin-6-yl)benzonitrile], 265 nM. On to `COc1c(N2CCc3nc(-c4ncccn4)ncc3C2)ccc(F)c1F` [Example 30, 6-(3,4-difluoro-2-methoxy-phenyl)-2-pyrimidin-2-yl-7,8-dihydro-5H-pyrido[4,3-d]pyrimidine], for which the IC50 worked out at 9490 nM.

Consider `Fc1ccc(N2CCc3nc(-c4ccccn4)ncc3C2)c(F)c1` [Example 14, 6-(2,4-difluorophenyl)-2-(2-pyridyl)-7,8-dihydro-5H-pyrido[4,3-d]pyrimidine], for which the IC50 was found to be 9510 nM.

`Clc1cc(Cl)nc(N2CCc3nc(-c4ncccn4)ncc3C2)c1` [Example 113, 6-(4,6-dichloro-2-pyridyl)-2-pyrimidin-2-yl-7,8-dihydro-5H-pyrido[4,3-d]pyrimidine]: the IC50 was 161 nM. The figure for `COc1cc(N2CCc3nc(-c4ncccn4)ncc3C2)cc(Cl)n1` [Example 116, 6-(2-chloro-6-methoxy-4-pyridyl)-2-pyrimidin-2-yl-7,8-dihydro-5H-pyrido[4,3-d]pyrimidine] is 530 nM; for `COc1nc(N2CCc3nc(-c4ncccn4)ncc3C2)ccc1F` [Example 72, 6-(5-fluoro-6-methoxy-2-pyridyl)-2-pyrimidin-2-yl-7,8-dihydro-5H-pyrido[4,3-d]pyrimidine] it is 1430 nM. For `CS(=O)(=O)c1ccc(N2CCc3nc(-c4ccccn4)ncc3C2)cc1` [Example 1, 6-(4-methylsulfonylphenyl)-2-(2-pyridyl)-7,8-dihydro-5H-pyrido[4,3-d]pyrimidine], the IC50 was 4240 nM. The figure for `COc1cc(N2CCc3cc(-c4ncccn4)ncc3C2)cc(F)c1F` [Example 95, 2-(3,4-difluoro-5-methoxy-phenyl)-6-pyrimidin-2-yl-3,4-dihydro-1H-2,7-naphthyridine] is 61 nM; for `CN(C)S(=O)(=O)c1ccc(N2CCc3nc(-c4ccccn4)ncc3C2)cc1` [Example 9, N,N-dimethyl-4-[2-(2-pyridyl)-7,8-dihydro-5H-pyrido[4,3-d]pyrimidin-6-yl]benzenesulfonamide] it is 16900 nM; for `COc1nc(-c2ccccn2)nc2c1CN(c1ccc(S(C)(=O)=O)cc1)CC2` [Example 81] it is 11300 nM. The figure for `COc1cccc(N2CCc3nc(-c4ccccn4)ncc3C2)c1` [Example 92, 6-(3-methoxyphenyl)-2-(2-pyridyl)-7,8-dihydro-5H-pyrido[4,3-d]pyrimidine] is 2890 nM; for `COc1nc(N2CCc3nc(-c4ccccn4)ncc3C2)ncc1Cl` [Example 68, 6-(5-chloro-4-methoxy-pyrimidin-2-yl)-2-(2-pyridyl)-7,8-dihydro-5H-pyrido[4,3-d]pyrimidine] it is 1470 nM.

`Fc1cc(N2CCc3nc(-c4ccccn4)ncc3C2)ccc1OCc1ccccc1` [Example 53, 6-(4-benzyloxy-3-fluoro-phenyl)-2-(2-pyridyl)-7,8-dihydro-5H-pyrido[4,3-d]pyrimidine]: the IC50 amounted to 1560 nM. The figure for `Fc1ccc(N2CCc3nc(-c4ccccn4)ncc3C2)cc1F` [Example 10, 6-(3,4-difluorophenyl)-2-(2-pyridyl)-7,8-dihydro-5H-pyrido[4,3-d]pyrimidine] is 2690 nM.

As for `CCOc1nc(-c2ccccn2)nc2c1CN(c1ccc(S(C)(=O)=O)cc1)CC2` [Example 82], the IC50 was 3350 nM. On to `Clc1ccc(N2CCc3nc(-c4ccccn4)ncc3C2)cc1` [Example 45, 6-(4-chlorophenyl)-2-(2-pyridyl)-7,8-dihydro-5H-pyrido[4,3-d]pyrimidine], for which the IC50 amounted to 3230 nM. The figure for `CNC(=O)c1cc(F)cc(N2CCc3nc(-c4ncccn4)ncc3C2)c1` [Example 103, 3-fluoro-N-methyl-5-(2-pyrimidin-2-yl-7,8-dihydro-5H-pyrido[4,3-d]pyrimidin-6-yl)benzamide] is 2770 nM; for `COC(=O)c1cc(Br)ccc1N1CCc2nc(-c3ccccn3)ncc2C1` [Example 16, methyl 5-bromo-2-[2-(2-pyridyl)-7,8-dihydro-5H-pyrido[4,3-d]pyrimidin-6-yl]benzoate] it is 13700 nM; for `COc1ncc(Cl)c(N2CCc3nc(-c4ccccn4)ncc3C2)n1` [Example 69, 6-(5-chloro-2-methoxy-pyrimidin-4-yl)-2-(2-pyridyl)-7,8-dihydro-5H-pyrido[4,3-d]pyrimidine] it is 999 nM. For the compound `NC(=O)c1cc(F)cc(N2CCc3nc(-c4ncccn4)ncc3C2)c1` [Example 105, 3-fluoro-5-(2-pyrimidin-2-yl-7,8-dihydro-5H-pyrido[4,3-d]pyrimidin-6-yl)benzamide], the IC50 was determined as 18100 nM. With `COc1cc(N2CCc3nc(-c4ccccn4)ncc3C2)ccc1C#N` [Example 60, 2-methoxy-4-[2-(2-pyridyl)-7,8-dihydro-5H-pyrido[4,3-d]pyrimidin-6-yl]benzonitrile] the figure was 371 nM; with `COc1cc(N2CCc3nc(-c4ncccn4)ccc3C2)cc(F)c1F` [Example 97, 6-(3,4-difluoro-5-methoxy-phenyl)-2-pyrimidin-2-yl-7,8-dihydro-5H-1,6-naphthyridine], 16400 nM. With `O=C(NCC(F)(F)F)c1cc(F)cc(N2CCc3nc(-c4ncccn4)ncc3C2)c1` [Example 104, 3-fluoro-5-(2-pyrimidin-2-yl-7,8-dihydro-5H-pyrido[4,3-d]pyrimidin-6-yl)-N-(2,2,2-trifluoroethyl)benzamide] the figure was 1240 nM; with `COc1cc(N2CCc3cc(-c4ccccn4)ncc3C2)cc(F)c1F` [Example 96, 2-(3,4-difluoro-5-methoxy-phenyl)-6-(2-pyridyl)-3,4-dihydro-1H-2,7-naphthyridine], 162 nM; with `COc1cc(N2CCc3nc(-c4ccccn4)ncc3C2)ccc1Cl` [Example 62, 6-(4-chloro-3-methoxy-phenyl)-2-(2-pyridyl)-7,8-dihydro-5H-pyrido[4,3-d]pyrimidine], 1340 nM.
